# Results: the supplement of paper PMC11061612
# Tests used:
# [1] = system: HCC1500 (Breast Carcinoma); assay: combination Emax (second highest fraction inhibited in the dose matrix, 72 h); higher = more inhibition; extreme values may be limits of the assay
# Procedure, shortened: (§1)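 After 24 hours at 37°C and 5% CO2 in 1536-well plates, cells in DMEM/F12 or RPMI plus 10% FBS received two-drug dose matrices for 72 hours. Viability came from CellTiter-Glo 2.0 luminescence and was scaled as inhibition, anchored at 0 by vehicle wells and at 1 by blank wells. Combination Emax is taken as the second-highest inhibition in the matrix, and Bliss excess as the observed combination effect less EA + EB − EA·EB, with EA and EB the single-agent effects.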
# [2] = system: Ca-Ski (Cervical Carcinoma); assay: as above
# Procedure, shortened: as §1
# [3] = system: SNU-387 (Hepatocellular Carcinoma); assay: as above
# Procedure, shortened: as §1
# [4] = system: A4-Fuk (B-Lymphoblastic Leukemia); assay: as above
# Procedure, shortened: as §1
# [5] = system: NCI-H1092 (Small Cell Lung Carcinoma); assay: as above
# Procedure, shortened: as §1
# [6] = system: KOPN-8 (B-Lymphoblastic Leukemia); assay: as above
# Procedure, shortened: as §1
# [7] = system: OACM5-1 (Esophageal Adenocarcinoma); assay: as above
# Procedure, shortened: as §1
# [8] = system: MDA-MB-453 (Breast Carcinoma); assay: as above
# Procedure, shortened: as §1
# [9] = system: OE33 (Esophageal Adenocarcinoma); assay: as above
# Procedure, shortened: as §1
# [10] = system: NCI-H1355 (Lung Adenocarcinoma); assay: as above
# Procedure, shortened: as §1
# [11] = system: ALL-SIL (T-Lymphoblastic Leukemia); assay: as above
# Procedure, shortened: as §1
# [12] = system: SW872 (Other Solid Carcinomas); assay: as above
# Procedure, shortened: as §1
# [13] = system: EW-1 (Ewing's Sarcoma); assay: as above
# Procedure, shortened: as §1
# [14] = system: G-401 (Other Solid Carcinomas); assay: as above
# Procedure, shortened: as §1
# [15] = system: HAL-01 (B-Lymphoblastic Leukemia); assay: as above
# Procedure, shortened: as §1
# [16] = system: NCI-H2122 (Lung Adenocarcinoma); assay: as above
# Procedure, shortened: as §1
# [17] = system: COLO-668 (Small Cell Lung Carcinoma); assay: as above
# Procedure, shortened: as §1
# [18] = system: HCC1937 (Breast Carcinoma); assay: as above
# Procedure, shortened: as §1
# [19] = system: NCI-H650 (Lung Adenocarcinoma); assay: Bliss excess, mean over the matrix (fraction); higher = more synergy
# Procedure, shortened: as §1
# [20] = system: SW872 (Other Solid Carcinomas); assay: as above
# Procedure, shortened: as §1
# 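For Bliss excess, mean over the matrix in this document: after 72 h of two-drug dosing.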
SMILES,combination Emax [1],combination Emax [2],combination Emax [3],combination Emax [4],combination Emax [5],combination Emax [6],combination Emax [7],combination Emax [8],combination Emax [9],combination Emax [10],combination Emax [11],combination Emax [12],combination Emax [13],combination Emax [14],combination Emax [15],combination Emax [16],combination Emax [17],combination Emax [18],Bliss excess [19],Bliss excess [20]
"CC1(C)CCC(CN2CCN(c3ccc(C(=O)NS(=O)(=O)c4ccc(NCC5CCOCC5)c([N+](=O)[O-])c4)c(Oc4cnc5[nH]ccc5c4)c3)CC2)=C(c2ccc(Cl)cc2)C1 [Venetoclax] + C1CN(CCC1(C(=O)N[C@@H](CCO)C2=CC=C(C=C2)Cl)N)C3=NC=NC4=C3C=CN4 [Capivasertib] (first compound max 1 µM, 7x7, partner max 3 µM)",0.704,0.415,0.23,0.724,0.354,0.824,0.592,0.463,0.184,0.268,0.687,0.152,0.365,0.518,0.916,0.498,0.469,0.373,-0.0395,-0.0588
"CC1(C)CCC(CN2CCN(c3ccc(C(=O)NS(=O)(=O)c4ccc(NCC5CCOCC5)c([N+](=O)[O-])c4)c(Oc4cnc5[nH]ccc5c4)c3)CC2)=C(c2ccc(Cl)cc2)C1 [Venetoclax] + C=CCn1c(=O)c2cnc(Nc3ccc(N4CCN(C)CC4)cc3)nc2n1-c1cccc(C(C)(C)O)n1 [AZD1775] (first compound max 1 µM, partner max 1 µM)",0.781,0.836,0.702,0.883,0.696,1,0.558,0.769,0.623,0.607,1,0.557,0.947,0.83,1,0.98,0.943,0.406,-0.0422,0.005
"CC1(C)CCC(CN2CCN(c3ccc(C(=O)NS(=O)(=O)c4ccc(NCC5CCOCC5)c([N+](=O)[O-])c4)c(Oc4cnc5[nH]ccc5c4)c3)CC2)=C(c2ccc(Cl)cc2)C1 [Venetoclax] + CCN(CCO)CCCOc1ccc2c(Nc3cc(CC(=O)Nc4cccc(F)c4)[nH]n3)ncnc2c1 [AZD2811] (first compound max 1 µM, 7x7, partner max 1 µM)",0.855,0.346,0.215,0.748,0.39,0.974,0.421,0.211,0.174,0.323,1,0.142,0.365,0.483,0.959,0.702,0.618,0.264,-0.0114,-0.0179
"CC1(C)CCC(CN2CCN(c3ccc(C(=O)NS(=O)(=O)c4ccc(NCC5CCOCC5)c([N+](=O)[O-])c4)c(Oc4cnc5[nH]ccc5c4)c3)CC2)=C(c2ccc(Cl)cc2)C1 [Venetoclax] + CN(C)CCCOc1ccc(-c2ccc3ncc4c(c3c2)n(C2CCOCC2)c(=O)n4C)cn1 [AZD0156] (first compound max 1 µM, 7x7, partner max 1 µM)",0.864,0.369,0.201,0.659,0.252,0.813,0.262,0.169,0.219,0.296,0.628,0.172,0.179,0.35,0.936,0.212,0.452,0.283,-0.0194,0.0025
"CC1(C)CCC(CN2CCN(c3ccc(C(=O)NS(=O)(=O)c4ccc(NCC5CCOCC5)c([N+](=O)[O-])c4)c(Oc4cnc5[nH]ccc5c4)c3)CC2)=C(c2ccc(Cl)cc2)C1 [Venetoclax] + COc1cc(Nc2ncc3c(n2)-c2ccc(Cl)cc2C(c2c(F)cccc2OC)=NC3)ccc1C(=O)O [Alisertib] (first compound max 1 µM, 7x7, partner max 10 µM)",0.805,0.64,0.191,0.822,0.684,1,0.663,0.314,0.314,0.473,1,0.265,0.628,0.657,1,0.939,0.474,0.387,-0.0361,0.0428
"CC1(C)CCC(CN2CCN(c3ccc(C(=O)NS(=O)(=O)c4ccc(NCC5CCOCC5)c([N+](=O)[O-])c4)c(Oc4cnc5[nH]ccc5c4)c3)CC2)=C(c2ccc(Cl)cc2)C1 [Venetoclax] + C[C@@H]1COCCN1C2=NC(=NC(=C2)C3(CC3)[S@](=N)(=O)C)C4=C5C=CNC5=NC=C4 [AZD6738] (first compound max 1 µM, 7x7, partner max 10 µM)",0.855,0.581,0.588,0.775,0.458,1,0.678,0.761,0.773,0.696,1,0.459,0.944,0.703,1,0.947,0.877,0.587,-0.0839,0.0001
"CC1(C)CCC(CN2CCN(c3ccc(C(=O)NS(=O)(=O)c4ccc(NCC5CCOCC5)c([N+](=O)[O-])c4)c(Oc4cnc5[nH]ccc5c4)c3)CC2)=C(c2ccc(Cl)cc2)C1 [Venetoclax] + C[C@@H](Nc1cc(F)cc(F)c1)c1cc(C(=O)N(C)C)cc2c(=O)cc(N3CCOCC3)oc12 [AZD8186] (first compound max 1 µM, 7x7, partner max 3 µM)",0.736,0.114,0.21,0.655,0.384,0.829,0.495,0.703,0.211,0.196,0.637,0.167,0.303,0.345,0.988,0.174,0.438,0.271,-0.0257,-0.0247
"CC1(C)CCC(CN2CCN(c3ccc(C(=O)NS(=O)(=O)c4ccc(NCC5CCOCC5)c([N+](=O)[O-])c4)c(Oc4cnc5[nH]ccc5c4)c3)CC2)=C(c2ccc(Cl)cc2)C1 [Venetoclax] + Cc1cc2ncnn2cc1Nc1ncc2c(n1)n(C1CCOCC1)c(=O)n2C [AZD7648] (first compound max 1 µM, 7x7, partner max 10 µM)",0.823,0.209,0.167,0.667,0.317,0.739,0.495,0.198,0.154,0.346,0.658,0.158,0.418,0.424,0.881,0.284,0.447,0.244,-0.0489,-0.0599
"CC1(C)CCC(CN2CCN(c3ccc(C(=O)NS(=O)(=O)c4ccc(NCC5CCOCC5)c([N+](=O)[O-])c4)c(Oc4cnc5[nH]ccc5c4)c3)CC2)=C(c2ccc(Cl)cc2)C1 [Venetoclax] + Cn1cnc2c(F)c(Nc3ccc(Br)cc3Cl)c(C(=O)NOCCO)cc21 [Selumetinib] (first compound max 1 µM, 7x7, partner max 3 µM)",0.612,0.219,0.295,0.712,0.253,0.971,0.336,0.15,0.174,0.273,0.679,0.105,0.238,0.33,0.97,0.679,0.787,0.264,-0.0217,-0.0158
